Test results published in patent US10344032B2, “Agents for treating neurogenic inflammation and neuropathic hyperalgesia related disorders” (PÉCSI TUDOMÁNYEGYETEM, priority 2014, dated 2019).
Where a name gives a salt, the structure may show the parent alone.

Target: T1, sst4 receptor (Homo sapiens, UniProt P31391)
T1 construct: expressed in transfected cells
Assay: Somatostatin sst4 receptor-coupled G-protein activation assay ([35S]GTPγS binding)
Assay type: biochemical
Conditions: 100 nM concentration; membrane fractions of CHO cells stably expressing the sst4 receptor; percentage over specific binding in absence of agonists
Source text: [^35S]GTPγS binding assay is a functional test determining agonist-induced and receptor-mediated G-protein activation which is based on the increase in guanine nucleotide exchange at G-proteins upon agonist stimulation. The interaction of a G protein-coupled receptor (GPCR) with the G protein is the first step in the transduction of the receptor binding signal to the activation of the second-messenger systems. We measured the level of [^35S]-GTPγS bound to the α subunit of G proteins and determined the efficacy of the compounds. Compounds which elicited 200% [^35S]GTPγS binding in nanomolar concentration were considered effective agonist. The examined compounds were added into the medium in 1 nM, 10 nM, 100 nM 1 μM and 10 μM concentrations.
Membrane fractions were prepared from CHO cells stably expressing the sst4 receptor in Tris-EGTA buffer (50 mM Tris-HCl, 1 mM EGTA, 3 mM MgCl2, 100 mM NaCl, pH 7.4). These membrane fractions (˜10 μg of protein/sample) were incubated at 30° C. for 60 min in the same Tris-EGTA buffer containing [^35S]GTPγS (0.05 nM) and increasing concentrations (10^−9 to 10^−5 M) of test compounds in the presence of 30 μM GDP in a final volume of 500 μl. Non-specific binding was determined in the presence of 10 μM unlabelled GTPγS. Total binding was measured in the absence of test compounds. To calculate the specific binding, non-specific binding was subtracted from total binding. The reaction was terminated by filtrating the samples through Whatman GF/B glass fiber filters. Using 48-well Slot Blot Manifold from Cleaver Scientific filters were washed three times with ice-cold 50 mM Tris-HCl buffer (pH 7.4). After drying for 60 min at 37° C., radioactivity was measured in scintillation liquid in a Packard Tri-Carb 2800 TR scintillation counter. Test compound-induced G-protein stimulation was given as percentage over the specific [^35S]GTPγS binding observed in the absence of agonists.

T1 sequence (P31391 whole entry): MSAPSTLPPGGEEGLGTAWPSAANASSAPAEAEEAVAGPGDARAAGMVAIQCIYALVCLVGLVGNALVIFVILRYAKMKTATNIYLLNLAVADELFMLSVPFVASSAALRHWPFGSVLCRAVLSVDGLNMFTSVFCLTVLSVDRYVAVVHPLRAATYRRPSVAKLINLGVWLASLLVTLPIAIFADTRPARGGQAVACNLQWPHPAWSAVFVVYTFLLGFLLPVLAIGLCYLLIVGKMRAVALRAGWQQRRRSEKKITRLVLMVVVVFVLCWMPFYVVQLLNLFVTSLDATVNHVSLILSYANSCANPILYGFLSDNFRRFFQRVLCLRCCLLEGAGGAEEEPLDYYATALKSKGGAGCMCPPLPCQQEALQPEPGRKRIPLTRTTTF

[35S]GTPγS binding (G-protein activation) [%] | Structure (SMILES)
202.67 | COc1cccc(CCNc2ncnc3c2c(C)c(C)n3Cc2ccccc2)c1 [Example 40, (7-Benzyl-5,6-dimethyl-7H-pyrrolo[2,3-d]pyrimidin-4-yl)-[2-(3-methoxy-phenyl)-ethyl]-amine]
207.67 | COc1ccc(CCNc2ncnc3c2c(C)c(C)n3CCCN(C)C)cc1 [Example 41, [7-(3-Dimethylamino-propyl)-5,6-dimethyl-7H-pyrrolo[2,3-d]pyrimidin-4-yl]-[2-(4-methoxy-phenyl)-ethyl]-amine]

System: not given
Assay: not given
Conditions: not given

Structure (SMILES) | melting point [°C]
COc1ccc(CCNc2ncnc3c2ccn3Cc2ccccc2)cc1 [Example 13, (7-Benzyl-7H-pyrrolo[2,3-d]pyrimidin-4-yl)-[2-(4-methoxy-phenyl)-ethyl]-amine] | 140 to 141
Cc1c(C)n(Cc2ccco2)c2ncnc(NCCc3ccc(N)cc3)c12 [Example 10, [2-(4-Amino-phenyl)-ethyl]-(7-furan-2-ylmethyl-5,6-dimethyl-7H-pyrrolo[2,3-d]pyrimidin-4-yl)-amine] | 150 to 151.5
COc1ccc(CCNc2ncnc3c2ccn3Cc2cncc(Br)c2)cc1 [Example 38, [7-(5-Bromo-pyridin-3-ylmethyl)-7H-pyrrolo[2,3-d]pyrimidin-4-yl]-[2-(4-methoxy-phenyl)-ethyl]-amine] | 100.4 to 100.7
COc1ccc(CCNc2ncnc3c2c(C)c(C)n3Cc2cccc(Cl)c2)cc1 [Example 23, [7-(3-Chloro-benzyl)-5,6-dimethyl-7H-pyrrolo[2,3-d]pyrimidin-4-yl]-[2-(4-methoxy-phenyl)-ethyl]-amine] | 214 to 216
COc1ccc(CCN(C)c2ncnc3c2c(C)c(C)n3Cc2cccc(Cl)c2)cc1OC [Example 22, [7-(3-Chloro-benzyl)-5,6-dimethyl-7H-pyrrolo[2,3-d]pyrimidin-4-yl]-[2-(3,4-dimethoxy-phenyl)-ethyl]-methyl-amine] | 178 to 180
Cc1c(C)n(Cc2ccccc2)c2ncnc(NCCc3ccc(NS(C)(=O)=O)cc3)c12 [Example 5, N-{4-[2-(7-Benzyl-5,6-dimethyl-7H-pyrrolo[2,3-d]pyrimidin-4-ylamino)-ethyl]-phenyl}-methanesulfonamide] | 175.7 to 176.4
OC(CNc1ncnc2c1ccn2Cc1ccccc1)c1ccccc1 (centres unmarked) [Example 29, 2-(7-Benzyl-7H-pyrrolo[2,3-d]pyrimidin-4-ylamino)-1-phenyl-ethanol] | 195 to 197
Clc1ccccc1CCNc1ncnc2c1ccn2Cc1cncc(Br)c1 [Example 36, [7-(5-Bromo-pyridin-3-ylmethyl)-7H-pyrrolo[2,3-d]pyrimidin-4-yl]-[2-(2-chloro-phenyl)-ethyl]-amine] | 114 to 115
Cc1c(C)n(Cc2cccc(Cl)c2)c2ncnc(NCCc3ccccc3Cl)c12 [Example 21, [7-(3-Chloro-benzyl)-5,6-dimethyl-7H-pyrrolo[2,3-d]pyrimidin-4-yl]-[2-(2-chloro-phenyl)-ethyl]-amine] | 190 to 192
COc1ccc(CCNc2ncnc3c2c(C)c(C)n3Cc2cccc(Cl)c2)cc1OC [Example 20, [7-(3-Chloro-benzyl)-5,6-dimethyl-7H-pyrrolo[2,3-d]pyrimidin-4-yl]-[2-(3,4-dimethoxy-phenyl)-ethyl]-amine] | 118 to 120
Fc1cccc(CCNc2ncnc3c2ccn3Cc2ccccc2)c1 [Example 27, (7-Benzyl-7H-pyrrolo[2,3-d]pyrimidin-4-yl)-[2-(3-fluoro-phenyl)-ethyl]-amine] | 116 to 117.5
Cc1c(C)n(CCCN(C)C)c2ncnc(NCCc3ccc(N)cc3)c12 (as salt: salt) [Example 12, [2-(4-Amino-phenyl)-ethyl]-[7-(3-dimethylamino-propyl)-5,6-dimethyl-7H-pyrrolo[2,3-d]pyrimidin-4-yl]-amine] | 237.2 to 239.9
Nc1ccc(CCNc2ncnc3c2ccn3Cc2cncc(Br)c2)cc1 [Example 11, [2-(4-Amino-phenyl)-ethyl]-[7-(5-bromo-pyridin-3-ylmethyl)-7H-pyrrolo[2,3-d]pyrimidin-4-yl]-amine] | 158.8 to 160.9
Cc1c(C)n(CCCN(C)C)c2ncnc(NCCc3ccccc3)c12 (as salt: salt) [Example 14, [7-(3-Dimethylamino-propyl)-5,6-dimethyl-7H-pyrrolo[2,3-d]pyrimidin-4-yl]-phenethyl-amine] | 236 to 238

Now from value to compound:

melting point [°C] | Structure (SMILES)
185 to 187.2 | COc1cccc(CCNc2ncnc3c2c(C)c(C)n3Cc2ccccc2)c1 [Example 40, (7-Benzyl-5,6-dimethyl-7H-pyrrolo[2,3-d]pyrimidin-4-yl)-[2-(3-methoxy-phenyl)-ethyl]-amine]
223 to 227 | Cc1c(C)n(Cc2ccccc2)c2ncnc(NCCc3ccccc3Cl)c12 [Example 42, (7-Benzyl-5,6-dimethyl-7H-pyrrolo[2,3-d]pyrimidin-4-yl)-[2-(2-chloro-phenyl)-ethyl]-amine]
167.7 to 170 | Cc1c(C)n(Cc2cccc(Cl)c2)c2ncnc(NCCc3ccc(O)cc3)c12 [Example 61, 4-{2-[7-(3-Chloro-benzyl)-5,6-dimethyl-7H-pyrrolo[2,3-d]pyrimidin-4-ylamino]-ethyl}-phenol]
183 to 185 | Cc1c(C)n(Cc2ccccc2)c2ncnc(NCCc3ccc(NS(=O)(=O)c4ccc(F)cc4F)cc3)c12 [Example 54, N-{4-[2-(7-Benzyl-5,6-dimethyl-7H-pyrrolo[2,3-d]pyrimidin-4-ylamino)-ethyl]-phenyl}-2,4-difluoro-benzenesulfonamide]
228 to 229.5 | CC(=O)Nc1ccc(CCNc2ncnc3c2ccn3Cc2ccccc2)cc1 [Example 47, N-{4-[2-(7-Benzyl-7H-pyrrolo[2,3-d]pyrimidin-4-ylamino)-ethyl]-phenyl}-acetamide]
> 250 | COc1ccc(CCNc2ncnc3c2c(C)c(C)n3CCCN(C)C)cc1 (as salt: salt) [Example 41, [7-(3-Dimethylamino-propyl)-5,6-dimethyl-7H-pyrrolo[2,3-d]pyrimidin-4-yl]-[2-(4-methoxy-phenyl)-ethyl]-amine]
165 to 167 | Cc1c(C)n(Cc2ccco2)c2ncnc(NCCc3ccc(O)cc3)c12 [Example 59, 4-[2-(7-Furan-2-ylmethyl-5,6-dimethyl-7H-pyrrolo[2,3-d]pyrimidin-4-ylamino)-ethyl]-phenol]
180 to 182 | Cc1c(C)n(Cc2ccccc2)c2ncnc(NCCc3ccc(NC(=O)c4ccccc4)cc3)c12 [Example 50, N-{4-[2-(7-Benzyl-5,6-dimethyl-7H-pyrrolo[2,3-d]pyrimidin-4-ylamino)-ethyl]-phenyl}-benzamide]
186.1 to 187.2 | CC(=O)Nc1ccc(CCNc2ncnc3c2c(C)c(C)n3Cc2cccc(Cl)c2)cc1 [Example 45, N-(4-{2-[7-(3-Chloro-benzyl)-5,6-dimethyl-7H-pyrrolo[2,3-d]pyrimidin-4-ylamino]-ethyl}-phenyl)-acetamide]
> 270 | Cc1c(C)n(Cc2ccccc2)c2ncnc(NCCc3ccc(NC(=O)c4ccc(Cl)cc4)cc3)c12 [Example 49, N-{4-[2-(7-Benzyl-5,6-dimethyl-7H-pyrrolo[2,3-d]pyrimidin-4-ylamino)-ethyl]-phenyl}-4-chloro-benzamide]
